The text below walks through data of US9809623B2, “α4β7 peptide monomer and dimer antagonists” (Protagonist Therapeutics, Inc., priority 2014, dated 2017).

Where two headings read alike, the source gives them in different places. Numbered stars: 1 amine (or outer) side, 2 acyl side, 3 side chain; on linkers, the order of the positions; unused ones are H or OH. Bridge positions count the residues as written; N and C are the ends. Square brackets hold non-standard residues; d marks the D form. Peptide text beside a SMILES is read from it. I, II: the chains in the order shown. Phe(3-CONH2) = NC(=O)c1cccc(C[C@H](N)C(=O)O)c1; Phe(4-F) = N[C@@H](Cc1ccc(F)cc1)C(=O)O; 1Nal = N[C@@H](Cc1cccc2ccccc12)C(=O)O; d1Nal = N[C@H](Cc1cccc2ccccc12)C(=O)O; d2Nal = N[C@H](Cc1ccc2ccccc2c1)C(=O)O; Diglycolyl = O=C(COCC(=O)[*:2])[*:1]; NMeR = CN[C@@H](CCCNC(=N)N)C(=O)O; Cit = NC(=O)NCCC[C@H](N)C(=O)O; Pen = CC(C)(S)[C@H](N)C(=O)O

In data set [1] the target is T1, rh integrin α4β7 (Homo sapiens, UniProt P13612+P26010).
T1 construct: purchased R&D Systems 5397-A30
T1 sequence (P13612 34-977 limits assumed): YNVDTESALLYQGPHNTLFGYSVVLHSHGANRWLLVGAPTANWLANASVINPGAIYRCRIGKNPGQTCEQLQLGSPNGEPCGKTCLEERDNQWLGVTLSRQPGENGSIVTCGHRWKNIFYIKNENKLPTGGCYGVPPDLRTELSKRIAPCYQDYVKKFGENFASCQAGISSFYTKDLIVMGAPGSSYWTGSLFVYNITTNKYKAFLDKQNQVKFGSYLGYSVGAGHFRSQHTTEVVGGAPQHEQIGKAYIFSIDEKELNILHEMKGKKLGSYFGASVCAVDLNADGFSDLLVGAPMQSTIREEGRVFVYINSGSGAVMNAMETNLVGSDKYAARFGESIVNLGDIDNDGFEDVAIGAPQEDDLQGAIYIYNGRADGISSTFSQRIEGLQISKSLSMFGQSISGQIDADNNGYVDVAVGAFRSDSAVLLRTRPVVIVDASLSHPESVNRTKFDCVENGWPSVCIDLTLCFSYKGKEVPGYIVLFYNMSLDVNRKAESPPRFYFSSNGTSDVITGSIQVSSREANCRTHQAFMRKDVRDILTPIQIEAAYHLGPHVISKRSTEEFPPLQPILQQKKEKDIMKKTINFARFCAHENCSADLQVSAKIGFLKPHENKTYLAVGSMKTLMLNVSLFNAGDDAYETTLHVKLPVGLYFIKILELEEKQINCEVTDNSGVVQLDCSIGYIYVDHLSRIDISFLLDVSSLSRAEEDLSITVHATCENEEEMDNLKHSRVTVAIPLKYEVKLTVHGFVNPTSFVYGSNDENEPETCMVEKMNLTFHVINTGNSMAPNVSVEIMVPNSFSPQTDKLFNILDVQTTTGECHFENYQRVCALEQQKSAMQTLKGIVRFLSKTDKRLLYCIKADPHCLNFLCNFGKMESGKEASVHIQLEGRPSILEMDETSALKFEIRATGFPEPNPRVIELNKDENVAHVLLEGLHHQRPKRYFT
T1 sequence (P26010 20-723 limits assumed): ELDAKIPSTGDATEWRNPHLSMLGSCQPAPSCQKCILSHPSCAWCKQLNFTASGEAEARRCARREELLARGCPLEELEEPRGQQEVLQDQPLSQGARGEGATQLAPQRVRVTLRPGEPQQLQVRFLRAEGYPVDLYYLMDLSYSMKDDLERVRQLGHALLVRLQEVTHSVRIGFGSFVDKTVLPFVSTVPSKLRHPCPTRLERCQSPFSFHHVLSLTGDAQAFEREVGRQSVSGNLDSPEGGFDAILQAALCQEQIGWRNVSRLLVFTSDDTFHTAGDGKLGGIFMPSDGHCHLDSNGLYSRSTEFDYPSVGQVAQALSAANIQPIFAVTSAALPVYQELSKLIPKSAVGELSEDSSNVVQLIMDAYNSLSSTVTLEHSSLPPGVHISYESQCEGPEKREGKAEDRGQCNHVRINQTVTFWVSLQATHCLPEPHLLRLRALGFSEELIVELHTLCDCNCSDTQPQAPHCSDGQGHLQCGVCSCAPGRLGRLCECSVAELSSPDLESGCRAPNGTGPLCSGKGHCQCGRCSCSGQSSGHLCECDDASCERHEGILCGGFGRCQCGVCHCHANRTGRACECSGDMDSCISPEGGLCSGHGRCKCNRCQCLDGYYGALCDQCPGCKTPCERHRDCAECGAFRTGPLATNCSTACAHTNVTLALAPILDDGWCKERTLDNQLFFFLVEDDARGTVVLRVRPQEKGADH
Put plainly: α4β7-MAdCAM Competition ELISA. The following applies: Table 3-B, Potency (α4β7); range classes; read-out: α4β7 ELISA IC50. It is filed as binding. The procedure:
A nickel coated plate (Pierce #15442) was coated with rh integrin α4β7 (R&D Systems #5397-A30) at 800 ng/well and incubated at room temperature with shaking for 1 hr. The solution was then removed by shaking and blocked with assay buffer (50 mM Tris-HCl pH7.6, 150 mM NaCl, 1 mM MnCl2 or MgCl2, 0.05% Tween-20 and 0.5% BSA) at 250 ul/well. The plate was then incubated at room temperature for 1 hr. Each well was washed 3 times with wash buffer (50 mM Tris-HCl pH7.6, 100 mM NaCl, 1 mM MnCl2 or MgCl2, 0.05% Tween-20). To each well was added 25 ul of a serial dilution (3-fold dilutions in assay buffer) of peptide starting at 20 μM. 25 ul of recombinant human MAdCAM-1 (R&D Systems #6056-MC) was then added to each well at a fixed concentration 20 nM. The final starting peptide concentration was 10 μM, and the final MAdCAM-1 concentration was 10 nM. The plates were then incubated at room temperature for 1 hr to reach binding equilibrium. The wells were then washed three times with wash buffer. 50 ul of mouse anti-human IgG1-HRP (Invitrogen # A10648) diluted in 1:2000 in assay buffer was then added to each well. The wells were incubated at room temperature for 45 min with shaking. The wells were then washed 3 times with wash buffer. 100 ul of 3,3′,5,5′-Tetramethylbenzidine (TMB) were then added to each well and closely observe during development time. The reaction was stopped with 2N H2SO4 and absorbance was read at 450 nm.
TMB is a chromogenic substrate suitable for use in ELISA procedures, which utilize horseradish peroxidase conjugates. This substrate produces a soluble end product that is blue in color and can be read spectrophotometrically at 370 or 655 nm. The reaction maybe stopped with 2 M H2S04, resulting in a yellow solution that is read at 450 nm. Each tablet contains 1 mg of TMB substrate. To prepare TMB Substrate Solution, dissolve one 3,3′,5,5′-tetramethylbenzidine tablet in 1 ml of DMSO and add to 9 ml of 0.05 M Phosphate-Citrate Buffer, pH 5.0. Add 2 μl of fresh 30% hydrogen peroxide (Product No. H 1009) per 10 ml of substrate buffer solution, immediately prior to use.
In general terms: ELISA stands for enzyme-linked immunosorbent assay.

Data set [2] concerns the target α4β7 (Homo sapiens, UniProt P13612+P26010). As to the kind of experiment: α4β7-MAdCAM Cell Adhesion Assay (RPMI 8866 human cells). It is filed as cell-based. Details: host or cells: RPMI 8866 human B lymphoblastoid cells. As to conditions: Table 3-B, Potency (α4β7); range classes; read-out: α4β7 cell (Hu) IC50. Summed up: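 Washed RPMI 8866 cells (200,000/well) in DMEM with 0.1% BSA, 10 mM HEPES pH 7, 1 mM MnCl2 adhered to rh MAdCAM-1/Fc-coated wells with serially diluted peptides, 30-45 min at 37 °C. After three washes, bound cells quantified by MTT, A570, cell-free background subtracted for dose response.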

Data set [3] is described as follows: Simulated Intestinal Fluid (SIF) Stability Assay. Type of data set: in vitro ADME, porcine. As to conditions: pig, pH 6.5, Table 3-B. The procedure:
Studies were carried out in simulated intestinal fluid (SIF) to evaluate intestinal stability of the peptide molecules of the instant invention. To prepare the SIF reagent, blank FASSIF was prepared by dissolving 0.348 g NaOH, 3.954 g sodium phosphate monobasic monohydrate and 6.186 g NaCl in a final volume of 1 liter water (final pH=6.5). To this solution, 24 g porcine pancreatin (Sigma catalog P7545) was added and stirred for 30 minutes (final pancreatin concentration is 2.4%). The solution was filtered through a cheese cloth and a No. 1 Whatman filter, and 10 ml aliquots were stored at −70° C. To run the reaction, a 10 ml aliquot was thawed at 37° C., and 125 ul aliquots were removed and mixed with an equal volume of blank FASSIF. The peptide stock solution (10 mM in 100% DMSO) was diluted 75-fold in blank FASSIF. A 50 μl aliquot of the diluted peptide was combined with 125 μl pancreatin (2.4%) and 125 μl blank FASSIF to yield final concentrations of 1% pancreatin and 22 μM peptide. The reactions were incubated at 37° C., and at various time points 50 μl aliquots were removed and added to 200 μl of quench solution containing 50% acetonitrile, 50% methanol, 5% formic acid, and 1 μg/ml internal standard. The quenched samples were centrifuged at 10,000 rpm for 10 minutes, and the supernatants were analyzed by LCMS/MS. The percent remaining at each time point was calculated based on the peak area response ratio of test to compound to internal standard. Half-lives were calculated by fitting to a first-order exponential decay equation using GraphPad.

Where [4] appears, read: simulated intestinal fluid (SIF) with 1% porcine pancreatin, > means experiment was stopped at that time and half life was not reached, read-out: Stabilty SIF t1/2.

α4β7, sequence (P13612 34-1032): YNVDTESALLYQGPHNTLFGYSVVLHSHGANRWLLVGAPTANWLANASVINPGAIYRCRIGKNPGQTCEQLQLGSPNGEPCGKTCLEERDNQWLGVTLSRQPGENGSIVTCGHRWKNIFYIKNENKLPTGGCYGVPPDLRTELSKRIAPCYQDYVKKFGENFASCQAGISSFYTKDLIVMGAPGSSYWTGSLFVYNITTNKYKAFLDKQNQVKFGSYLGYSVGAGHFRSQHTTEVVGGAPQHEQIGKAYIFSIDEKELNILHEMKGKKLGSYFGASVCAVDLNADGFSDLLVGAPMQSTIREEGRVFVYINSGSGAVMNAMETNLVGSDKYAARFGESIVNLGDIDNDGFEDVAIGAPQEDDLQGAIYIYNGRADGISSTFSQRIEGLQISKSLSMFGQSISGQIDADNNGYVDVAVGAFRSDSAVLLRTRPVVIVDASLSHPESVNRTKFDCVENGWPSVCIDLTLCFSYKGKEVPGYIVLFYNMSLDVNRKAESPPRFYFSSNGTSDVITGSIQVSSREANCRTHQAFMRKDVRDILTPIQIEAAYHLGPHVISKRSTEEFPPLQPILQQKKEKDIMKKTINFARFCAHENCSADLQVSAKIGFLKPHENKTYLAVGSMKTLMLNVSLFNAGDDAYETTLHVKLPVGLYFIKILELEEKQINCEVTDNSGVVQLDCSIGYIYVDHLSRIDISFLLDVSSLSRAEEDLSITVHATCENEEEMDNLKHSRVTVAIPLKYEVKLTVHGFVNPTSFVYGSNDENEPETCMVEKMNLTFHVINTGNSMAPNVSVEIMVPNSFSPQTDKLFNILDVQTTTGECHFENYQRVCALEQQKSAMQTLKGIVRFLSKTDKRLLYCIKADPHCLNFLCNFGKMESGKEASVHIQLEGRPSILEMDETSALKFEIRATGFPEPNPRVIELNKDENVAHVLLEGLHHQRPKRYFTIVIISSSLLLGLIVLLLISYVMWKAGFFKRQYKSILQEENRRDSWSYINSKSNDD
α4β7, sequence (P26010 20-798): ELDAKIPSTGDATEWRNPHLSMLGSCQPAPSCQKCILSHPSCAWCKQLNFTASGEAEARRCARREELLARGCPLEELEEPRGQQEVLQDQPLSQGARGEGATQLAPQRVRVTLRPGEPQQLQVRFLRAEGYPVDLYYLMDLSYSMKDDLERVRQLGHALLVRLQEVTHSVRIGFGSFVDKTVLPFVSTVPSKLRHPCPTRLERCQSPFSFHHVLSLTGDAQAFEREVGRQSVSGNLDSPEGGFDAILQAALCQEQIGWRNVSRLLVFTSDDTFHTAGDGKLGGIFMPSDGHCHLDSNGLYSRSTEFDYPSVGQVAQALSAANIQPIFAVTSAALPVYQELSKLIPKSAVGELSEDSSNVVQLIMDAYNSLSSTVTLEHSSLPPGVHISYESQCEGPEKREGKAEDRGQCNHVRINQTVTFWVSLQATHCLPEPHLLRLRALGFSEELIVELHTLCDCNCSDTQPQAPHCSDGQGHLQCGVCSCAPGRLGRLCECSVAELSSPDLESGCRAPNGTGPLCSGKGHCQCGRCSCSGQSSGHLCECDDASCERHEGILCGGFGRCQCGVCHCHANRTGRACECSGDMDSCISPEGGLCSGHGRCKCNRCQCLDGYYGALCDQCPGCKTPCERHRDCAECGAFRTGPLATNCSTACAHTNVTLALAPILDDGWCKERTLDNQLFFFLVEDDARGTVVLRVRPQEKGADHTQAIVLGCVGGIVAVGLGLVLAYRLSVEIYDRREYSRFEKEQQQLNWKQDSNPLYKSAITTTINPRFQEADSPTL

What is called IC50 is the concentration needed to halve the response being measured. For `CC(=O)N[C@@H]1C(=O)N(C)[C@@H](CCCNC(=N)N)C(=O)N[C@@H](CO)C(=O)N[C@@H](CC(=O)O)C(=O)N[C@@H]([C@@H](C)O)C(=O)N[C@@H](CC(C)C)C(=O)N[C@H](C(=O)N[C@@H](Cc2cccc3ccccc23)C(=O)N[C@H](CCC(=O)O)C(=O)N[C@H](CCCCN)C(N)=O)C(C)(C)SSC1(C)C` [compound 8] (Ac-[Pen][NMeR]SDTL[Pen][1Nal][dE][dK]-NH2; disulfide 1-7), in data set [1], the IC50 was 25 to 50 nM.
On to `CC(=O)N[C@@H]1C(=O)N(C)[C@@H](CCCNC(=N)N)C(=O)N[C@@H](CO)C(=O)N[C@@H](CC(=O)O)C(=O)N[C@@H]([C@@H](C)O)C(=O)N[C@@H](CC(C)C)C(=O)N[C@H](C(=O)N[C@H](Cc2cccc3ccccc23)C(=O)N[C@@H](CCC(=O)O)C(=O)N[C@H](CCCCN)C(N)=O)C(C)(C)SSC1(C)C` [compound 10] (Ac-[Pen][NMeR]SDTL[Pen][d1Nal]E[dK]-NH2; disulfide 1-7), for which the concentration for half-maximal inhibition (IC50) in data set [1] was 10 to 25 nM.
On the same count and under the same terms, under `CC(=O)N[C@@H]1C(=O)N(C)[C@@H](CCCNC(=N)N)C(=O)N[C@@H](CO)C(=O)N[C@@H](CC(=O)O)C(=O)N[C@@H]([C@@H](C)O)C(=O)N[C@@H](CC(C)C)C(=O)N[C@H](C(=O)N[C@H](Cc2ccc3ccccc3c2)C(=O)N[C@@H](CCC(=O)O)C(=O)N[C@H](CCCCN)C(N)=O)C(C)(C)SSC1(C)C` [compound 11] (Ac-[Pen][NMeR]SDTL[Pen][d2Nal]E[dK]-NH2; disulfide 1-7) stands 25 to 50 nM.
Regarding `CC(=O)N[C@@H]1C(=O)N(C)[C@@H](CCCNC(=N)N)C(=O)N[C@@H](CO)C(=O)N[C@@H](CC(=O)O)C(=O)N[C@@H]([C@@H](C)O)C(=O)N[C@@H](CC(C)C)C(=O)N[C@H](C(=O)N[C@@H](Cc2c[nH]c3ccccc23)C(=O)N[C@@H](CCCNC(N)=O)C(=O)N[C@H](CCCCNC(=O)COCC(=O)NCCCC[C@@H](NC(=O)[C@H](CCCNC(N)=O)NC(=O)[C@H](Cc2c[nH]c3ccccc23)NC(=O)[C@H]2NC(=O)[C@H](CC(C)C)NC(=O)[C@H]([C@@H](C)O)NC(=O)[C@H](CC(=O)O)NC(=O)[C@H](CO)NC(=O)[C@H](CCCNC(=N)N)N(C)C(=O)[C@@H](NC(C)=O)C(C)(C)SSC2(C)C)C(N)=O)C(N)=O)C(C)(C)SSC1(C)C` [compound 84] (I: Ac-[Pen][NMeR]SDTL[Pen]W[Cit][dK]-NH2 / II: Ac-[Pen][NMeR]SDTL[Pen]W[Cit][dK]-NH2; disulfide I:1-I:7, II:1-II:7; linker I:10-II:10 via Diglycolyl), in data set [2], the IC50 is 10 to 25 nM. Also, the half-life at 22 μM in data set [3] (setting [4]) was less than 0.333 h.
On to `CC(=O)N[C@@H]1C(=O)N(C)[C@@H](CCCNC(=N)N)C(=O)N[C@@H](CO)C(=O)N[C@@H](CC(=O)O)C(=O)N[C@@H]([C@@H](C)O)C(=O)N[C@@H](CC(C)C)C(=O)N[C@H](C(=O)N[C@@H](Cc2cccc(C(N)=O)c2)C(=O)N[C@H](CCC(=O)O)C(=O)N[C@H](CCCCNC(=O)COCC(=O)NCCCC[C@@H](NC(=O)[C@@H](CCC(=O)O)NC(=O)[C@H](Cc2cccc(C(N)=O)c2)NC(=O)[C@H]2NC(=O)[C@H](CC(C)C)NC(=O)[C@H]([C@@H](C)O)NC(=O)[C@H](CC(=O)O)NC(=O)[C@H](CO)NC(=O)[C@H](CCCNC(=N)N)N(C)C(=O)[C@@H](NC(C)=O)C(C)(C)SSC2(C)C)C(N)=O)C(N)=O)C(C)(C)SSC1(C)C` [compound 99] (I: Ac-[Pen][NMeR]SDTL[Pen][Phe(3-CONH2)][dE][dK]-NH2 / II: Ac-[Pen][NMeR]SDTL[Pen][Phe(3-CONH2)][dE][dK]-NH2; disulfide I:1-I:7, II:1-II:7; linker I:10-II:10 via Diglycolyl), for which, in data set [2], the IC50 lay within 100 to 500 nM. For the same compound, the half-life at 22 μM in data set [3] (simulated intestinal fluid (SIF) with porcine pancreatin, > means experiment was stopped at that time and half life was not reached, read-out: Stabilty SIF t1/2) was greater than 3 h.
For `CC(=O)N[C@@H]1C(=O)N(C)[C@@H](CCCNC(=N)N)C(=O)N[C@@H](CO)C(=O)N[C@@H](CC(=O)O)C(=O)N[C@@H]([C@@H](C)O)C(=O)N[C@@H](CC(C)C)C(=O)N[C@H](C(=O)N[C@@H](Cc2c[nH]c3ccccc23)C(=O)N[C@H](Cc2c[nH]cn2)C(=O)N[C@H](CCCCNC(=O)COCC(=O)NCCCC[C@@H](NC(=O)[C@@H](Cc2c[nH]cn2)NC(=O)[C@H](Cc2c[nH]c3ccccc23)NC(=O)[C@H]2NC(=O)[C@H](CC(C)C)NC(=O)[C@H]([C@@H](C)O)NC(=O)[C@H](CC(=O)O)NC(=O)[C@H](CO)NC(=O)[C@H](CCCNC(=N)N)N(C)C(=O)[C@@H](NC(C)=O)C(C)(C)SSC2(C)C)C(N)=O)C(N)=O)C(C)(C)SSC1(C)C` [compound 104] (I: Ac-[Pen][NMeR]SDTL[Pen]W[dH][dK]-NH2 / II: Ac-[Pen][NMeR]SDTL[Pen]W[dH][dK]-NH2; disulfide I:1-I:7, II:1-II:7; linker I:10-II:10 via Diglycolyl), the IC50 in data set [2] is 100 to 500 nM. Moreover, the half-life at 22 μM in data set [3] (setting [4]) is 0.583 h.
Taken in the same sequence, the figures for `CC(=O)N[C@@H]1C(=O)N(C)[C@@H](CCCNC(=N)N)C(=O)N[C@@H](CO)C(=O)N[C@@H](CC(=O)O)C(=O)N[C@@H]([C@@H](C)O)C(=O)N[C@@H](CC(C)C)C(=O)N[C@H](C(=O)N[C@@H](Cc2ccc(F)cc2)C(=O)N[C@H](CCC(=O)O)C(=O)N[C@H](CCCCNC(=O)COCC(=O)NCCCC[C@@H](NC(=O)[C@@H](CCC(=O)O)NC(=O)[C@H](Cc2ccc(F)cc2)NC(=O)[C@H]2NC(=O)[C@H](CC(C)C)NC(=O)[C@H]([C@@H](C)O)NC(=O)[C@H](CC(=O)O)NC(=O)[C@H](CO)NC(=O)[C@H](CCCNC(=N)N)N(C)C(=O)[C@@H](NC(C)=O)C(C)(C)SSC2(C)C)C(N)=O)C(N)=O)C(C)(C)SSC1(C)C` [compound 107] (I: Ac-[Pen][NMeR]SDTL[Pen][Phe(4-F)][dE][dK]-NH2 / II: Ac-[Pen][NMeR]SDTL[Pen][Phe(4-F)][dE][dK]-NH2; disulfide I:1-I:7, II:1-II:7; linker I:10-II:10 via Diglycolyl) were 25 to 50 nM and greater than 3 h.
Regarding `CC(=O)N[C@@H]1C(=O)N(C)[C@@H](CCCNC(=N)N)C(=O)N[C@@H](CO)C(=O)N[C@@H](CC(=O)O)C(=O)N[C@@H]([C@@H](C)O)C(=O)N[C@@H](CC(C)C)C(=O)N[C@H](C(=O)N[C@@H](Cc2c[nH]c3ccccc23)C(=O)O)C(C)(C)SSC1(C)C` [compound 127] (Ac-[Pen][NMeR]SDTL[Pen]W-OH; disulfide 1-7), in data set [2], the half-maximal inhibitory concentration (IC50) fell in the range of 100 to 500 nM. In data set [3] (simulated intestinal fluid (SIF) with 1% porcine pancreatin, alone or in parentheses after >360, read-out: Stabilty SIF t1/2, in hr (converted)), the half-life at 22 μM was 35 h.
For the compound `CC(=O)N[C@@H]1C(=O)N(C)[C@@H](CCCNC(=N)N)C(=O)N[C@@H](CO)C(=O)N[C@@H](CC(=O)O)C(=O)N[C@@H]([C@@H](C)O)C(=O)N[C@@H](CC(C)C)C(=O)N[C@H](C(=O)N[C@@H](Cc2c[nH]c3ccccc23)C(=O)N[C@@H](CCC(=O)O)C(=O)O)C(C)(C)SSC1(C)C` [compound 128] (Ac-[Pen][NMeR]SDTL[Pen]WE-OH; disulfide 1-7), the IC50 in data set [2] lay within 50 to 100 nM. In data set [3] (setting [4]), the half-life at 22 μM was 3 h.
